Test results from ChEMBL document CHEMBL5252515, “Discovery of 6-Amino-2-{[(1S)-1-methylbutyl]oxy}-9-[5-(1-piperidinyl)pentyl]-7,9-dihydro-8H-purin-8-one (GSK2245035), a Highly Potent and Selective Intranasal Toll-Like Receptor 7 Agonist for the Treatment of Asthma” (J Med Chem, 2016).
Calls of active or inactive are those of the source. The calls are words filed in the database; no cut-off is given here.

Columns and labels:
[1] = biological target: T1, Toll-like receptor 7 (Macaca fascicularis, UniProt B3Y652); assay: Agonist activity at TLR7 in cynomolgus monkey whole blood assessed as induction of TNFalpha production; assay type: tissue-based
T1 sequence (B3Y652 whole entry): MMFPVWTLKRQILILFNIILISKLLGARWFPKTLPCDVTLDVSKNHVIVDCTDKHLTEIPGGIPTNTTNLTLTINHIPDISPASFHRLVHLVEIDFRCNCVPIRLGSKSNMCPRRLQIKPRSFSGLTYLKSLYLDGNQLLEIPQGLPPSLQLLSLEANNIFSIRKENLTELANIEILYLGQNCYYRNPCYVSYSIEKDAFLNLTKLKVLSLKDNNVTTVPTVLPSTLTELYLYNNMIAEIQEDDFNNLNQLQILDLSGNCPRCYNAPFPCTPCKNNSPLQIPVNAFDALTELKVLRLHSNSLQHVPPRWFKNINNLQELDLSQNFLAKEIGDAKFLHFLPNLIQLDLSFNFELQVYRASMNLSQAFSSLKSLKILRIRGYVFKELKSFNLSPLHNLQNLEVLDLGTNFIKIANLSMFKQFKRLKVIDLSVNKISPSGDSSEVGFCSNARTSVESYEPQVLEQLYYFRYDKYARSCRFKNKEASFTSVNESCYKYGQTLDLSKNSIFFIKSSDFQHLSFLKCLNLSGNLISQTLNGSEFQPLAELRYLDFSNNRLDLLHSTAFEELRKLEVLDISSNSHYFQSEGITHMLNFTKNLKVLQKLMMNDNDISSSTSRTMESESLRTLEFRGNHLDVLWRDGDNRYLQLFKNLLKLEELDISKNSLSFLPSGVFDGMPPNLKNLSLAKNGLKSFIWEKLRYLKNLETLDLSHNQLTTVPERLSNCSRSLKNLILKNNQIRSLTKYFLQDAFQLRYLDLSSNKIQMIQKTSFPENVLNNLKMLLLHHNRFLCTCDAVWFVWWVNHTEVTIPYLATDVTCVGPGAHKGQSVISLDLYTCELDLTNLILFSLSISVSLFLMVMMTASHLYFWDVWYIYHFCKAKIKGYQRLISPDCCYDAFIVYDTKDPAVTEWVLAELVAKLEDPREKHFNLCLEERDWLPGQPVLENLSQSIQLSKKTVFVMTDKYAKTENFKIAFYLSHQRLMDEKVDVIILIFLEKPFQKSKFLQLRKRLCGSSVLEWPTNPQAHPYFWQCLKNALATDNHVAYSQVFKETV

[2] = biological target: T2, Toll-like receptor 7 (Homo sapiens, UniProt Q9NYK1); assay: Agonist activity at TLR7 in human whole blood assessed as induction of IL-12p70 production after 20 hrs by electrochemiluminescence assay; assay type: tissue-based
T2 sequence (Q9NYK1 whole entry): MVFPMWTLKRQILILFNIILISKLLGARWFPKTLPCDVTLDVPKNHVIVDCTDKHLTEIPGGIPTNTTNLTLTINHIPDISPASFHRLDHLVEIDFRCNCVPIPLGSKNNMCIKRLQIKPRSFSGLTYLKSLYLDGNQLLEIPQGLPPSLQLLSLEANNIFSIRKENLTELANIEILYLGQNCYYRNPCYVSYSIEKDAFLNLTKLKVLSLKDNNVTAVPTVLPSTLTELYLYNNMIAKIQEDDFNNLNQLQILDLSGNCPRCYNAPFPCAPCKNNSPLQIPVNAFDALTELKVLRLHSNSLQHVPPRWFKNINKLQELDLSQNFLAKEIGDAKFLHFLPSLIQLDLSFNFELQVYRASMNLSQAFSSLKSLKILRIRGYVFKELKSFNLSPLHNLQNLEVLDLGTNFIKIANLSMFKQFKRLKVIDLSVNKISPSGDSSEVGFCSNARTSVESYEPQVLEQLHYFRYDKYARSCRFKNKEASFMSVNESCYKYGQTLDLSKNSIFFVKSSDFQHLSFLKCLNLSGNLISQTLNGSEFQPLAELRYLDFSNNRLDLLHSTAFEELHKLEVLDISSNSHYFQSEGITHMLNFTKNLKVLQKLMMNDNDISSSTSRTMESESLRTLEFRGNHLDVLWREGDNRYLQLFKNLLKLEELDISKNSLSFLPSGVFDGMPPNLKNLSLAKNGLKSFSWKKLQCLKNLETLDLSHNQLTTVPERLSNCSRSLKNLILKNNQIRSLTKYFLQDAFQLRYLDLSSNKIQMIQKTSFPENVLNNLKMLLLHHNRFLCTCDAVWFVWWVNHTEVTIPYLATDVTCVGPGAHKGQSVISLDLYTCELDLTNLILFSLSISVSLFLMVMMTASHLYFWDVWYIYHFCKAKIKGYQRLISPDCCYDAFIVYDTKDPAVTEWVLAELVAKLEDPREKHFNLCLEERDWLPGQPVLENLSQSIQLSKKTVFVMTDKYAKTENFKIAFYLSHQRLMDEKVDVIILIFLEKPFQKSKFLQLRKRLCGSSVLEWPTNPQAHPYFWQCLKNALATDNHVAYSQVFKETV

[3] = biological target: T3, Toll-like receptor 7 (Macaca fascicularis) (UniProt B3Y652); assay: In vivo target occupancy at TLR7 in cynomolgus monkey assessed as fold increase in GBP1 mRNA expression in nasal scrape at 3 ng/kg administered intranasally incubated for 24 hrs by TaqMan analysis (reference value: 2.4); assay type: functional
T3 sequence (whole entry): T1 sequence (B3Y652 whole entry)

[4] = system: PBMC; assay: Immunomodulatory activity in human PBMC assessed as IL-10 production incubated for 6 days in presence of allergen house dust mite; assay type: functional, cell-based; conditions: time 6.0 day
[5] = Ocular toxicity in monkey at 1000 ug/ml post single dose administration after 48 hrs; set-up: species or system Macaca mulatta; conditions: rhesus monkey, in vivo, dose 1000 µg/ml
[6] = Tmax in cynomolgus monkey after intranasal administration; assay type: ADME, Macaca fascicularis; conditions: in vivo, inhaled or intranasal

Question: Which EC50 [1] does the source give for `CCC[C@H](C)Oc1nc(N)c2[nH]c(=O)n(CCCCCN3CCCCC3)c2n1` [GSK-2245035] here?
Answer: The EC50 was 15.8 µM.

Question: What about the EC50 [2] of the same molecule?
Answer: Its EC50 is 0.0631 µM.

Question: And the fold change (FC) [3]?
Answer: Its fold change (FC) is 68.5.

Question: What about the Activity [4] of the same molecule?
Answer: The Activity was “Active”.

Question: And the Activity [5]?
Answer: The Activity was “Toxic”.

Question: And the Tmax [6]?
Answer: Its Tmax is at most 5 min.
